{"source": "patent US20100160391A1", "about": "“Substituted Aminopyridines as Fluorescent Reporters for Amide Hydrolases” (priority 2006, published 2010)", "key": {"[1]": {"target": "T1, microsomal fatty acid amide hydrolase (FAAH) (Homo sapiens, UniProt O00519)", "T1 construct": "made in house; host or cells: Trichoplusia ni High Five cells infected with recombinant baculovirus Ac-hFAAH; microsomal fraction", "T1 sequence (O00519 1-579)": "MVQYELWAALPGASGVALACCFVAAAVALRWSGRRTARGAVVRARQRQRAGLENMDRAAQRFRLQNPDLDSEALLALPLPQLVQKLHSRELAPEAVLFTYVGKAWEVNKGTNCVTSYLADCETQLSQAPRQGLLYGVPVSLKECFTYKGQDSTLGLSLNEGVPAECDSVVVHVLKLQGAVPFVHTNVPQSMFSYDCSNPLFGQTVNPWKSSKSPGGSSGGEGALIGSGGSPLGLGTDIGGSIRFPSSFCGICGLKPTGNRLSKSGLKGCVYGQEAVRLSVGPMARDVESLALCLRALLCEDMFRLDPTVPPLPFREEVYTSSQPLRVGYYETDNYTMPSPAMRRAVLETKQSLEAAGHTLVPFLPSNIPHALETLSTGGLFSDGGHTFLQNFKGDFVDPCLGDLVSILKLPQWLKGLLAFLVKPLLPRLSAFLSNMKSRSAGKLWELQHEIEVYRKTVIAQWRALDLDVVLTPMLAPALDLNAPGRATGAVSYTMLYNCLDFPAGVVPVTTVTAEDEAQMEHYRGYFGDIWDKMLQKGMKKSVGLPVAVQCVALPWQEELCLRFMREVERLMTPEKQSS", "assay": "Lowest detection limits of microsomal FAAH toward colorimetric and fluorescent substrates", "type": "biochemical", "experimental": "Preparation of recombinant human FAAH. Transgenic expression of the human FAAH in a baculovirus system was performed by following the method described in Nishi et al., Arch. Biochem. Biophys., 445:115-123 (2006). The cDNA encoding human FAAH (GenBank Accession No. NM_001441) was amplified by PCR using a human liver cDNA library (Invitrogen; Carlsbad, Calif.) as a template. The primer pair was 5′-[…]-3′ and 5′-[…]-3′. BglII and EcoRI endonuclease sites (underlined) were incorporated just upstream of the start codon and downstream of the stop codon of the coding sequence of FAAH, respectively. The PCR products were cloned into a pCR2.1 vector (Invitrogen) and the nucleotide sequence was verified by DNA sequencing. The cDNA fragments were then excised and directionally ligated to the BglII and EcoRI sites of the baculovirus transfer vector pAcUW21 (Lopez-Ferber et al., Baculovirus transfer vectors, in “Baculovirus Expression Protocols,” Richardson (Ed.), pp 25-63, Humana Press, Totowa, N.J., 1995). Recombinant baculoviruses harboring the human FAAH gene, Ac-hFAAH, were generated by co-transfection of Spodoptera frugiperda-derived Sf21 cells with the recombinant transfer vector plasmid and Bsu36I-cleaved BacPAK6 viral DNA (Clontech Laboratories; Mountain View, Calif.) as described in O'Reilly et al., Baculovirus Expression Vectors: A Laboratory Manual, Oxford University Press, New York, 1992. Trichoplusia ni-derived High Five cells (1×10^6 cells/ml) were inoculated with a high titer of Ac-hFAAH. At 72 hours post-infection, the infected cells were harvested by centrifugation at 2,000×g for 20 min at 4° C. and suspended in 50 mM Tris-HCl (pH 8.0) containing 150 mM NaCl, 1 mM EDTA, 1 μM pepstatin, 100 μM leupeptin, and 0.1 mg/ml aprotinin. The cell suspension was then homogenized using a Polytron homogenizer and centrifuged at 10,000×g for 20 min at 4° C. The microsomal fraction was collected by ultracentrifugation of the supernatant at 100,000×g for 60 min at 4° C. The pellet was resuspended in 20 mM Tris-HCl (pH 8.0) containing 10% (w/v) glycerol and 1% (w/v) Triton-X 100 and stored at −80° C. until use.\n(§1) Comparison of the lowest detection limits of protein concentration of FAAH toward colorimetric and fluorescent substrates. In general, all assays were performed in 96-well styrene flat-bottom microtiter plates with a Spectra Max M2 spectrophotometer at 37° C. for […]. The total volume of each well was 201 μl consisting of 0.1 M sodium phosphate buffer (pH 8.0) (190 μl) containing 1% glycerol and 0.1% Triton-X 100, stock or diluted protein solution (10 μl), and the substrate solution (1 μl) in ethanol (final concentration 200 μM for 10, 11, 13 or 14) or in DMSO (final concentration 25 μM for 12, 15, or 16; 50 μM for 17). The lowest detection limits of microsomal fatty acid amide hydrolase (FAAH) by substrates were determined by the fact that the signal at 10 min after kinetic measurements are equal to or over three times the noise or basal line at 0 min. Colorimetric substrate (16) assays were performed in clear 96-well microtititer plates using an absorbance wavelength at 382 nm. The fluorescent substrates containing 5-amino-2-methoxypyridine (e.g., 10, 13) were measured at an excitation wavelength (302 nm), emission wavelength (396 nm), and auto cutoff wavelength (325 nm). Similarly, the fluorescent substrates containing 5-amino-2-methoxy-6-methylpyridine (e.g., 11, 14, and 17) were measured at an excitation wavelength (304 nm), emission wavelength (392 nm), and an auto cutoff wavelength of 325 nm. In addition, an excitation wavelength (366 nm), emission wavelength (496 nm), and auto cutoff wavelength (495 nm) were used for the substrates (e.g., 12 and 15) containing 7-amino-4-trifluoromethyl coumarin."}, "[2]": {"system": "amidases, human liver microsomes", "assay": "Specific activity, human liver microsomes", "type": "biochemical", "settings": "pH 8.0, 37° C.; NM = not measurable at the same protein concentration as other substrates", "experimental": "as §1\nSpecific activity determination. The assays for specific activities were performed as described above for the sensitivity assay. The specific activity presented is based on the following: 1) the signal after a 10 min enzymatic reaction was at least 3 fold the baseline signal at 0 min, and 2) the amount of hydrolyzed substrate during a 10 min period was less than 10% of the total amount of the substrate added. To correct for protein-induced fluorescence quenching, a standard curve of 5-amino-2-methoxypyridine (6) or 5-amino-2-methoxy-6-methylpyridine (8) was constructed in the presence of the same protein concentration used for the assay of that enzyme."}, "[3]": {"system": "amidases, microsomes from High Five cells", "assay": "Specific activity, microsomes from High Five cells", "settings": "pH 8.0, 37° C.; NM = not measurable at the same protein concentration as other substrates", "protocol": "Preparation of recombinant human FAAH. Transgenic expression of the human FAAH in a baculovirus system was performed by following the method described in Nishi et al., Arch. […] The cDNA encoding human FAAH (GenBank Accession No. NM—001441) was amplified by PCR using a human liver cDNA library (Invitrogen; Carlsbad, Calif.) as a template. The primer pair was 5′-[sequence]-3′ and 5′-[sequence]-3′. BglII and EcoRI endonuclease sites (underlined) were incorporated just upstream of the start codon and downstream of the stop codon of the coding sequence of FAAH, respectively. The PCR products were cloned into a pCR2.1 vector (Invitrogen) and the nucleotide sequence was verified by DNA sequencing. The cDNA fragments were then excised and directionally ligated to the BglII and EcoRI sites of the baculovirus transfer vector pAcUW21 (Lopez-Ferber et al., Baculovirus transfer vectors, in “Baculovirus Expression Protocols,” Richardson (Ed.), pp 25-63, Humana Press, Totowa, N.J., 1995). Recombinant baculoviruses harboring the human FAAH gene, Ac-hFAAH, were generated by co-transfection of Spodoptera frugiperda-derived Sf21 cells with the recombinant transfer vector plasmid and Bsu36I-cleaved BacPAK6 viral DNA (Clontech Laboratories; Mountain View, Calif.) as described in O'Reilly et al., Baculovirus Expression Vectors: A Laboratory Manual, Oxford University Press, New York, 1992. Trichoplusia ni-derived High Five cells (1×10^6 cells/ml) were inoculated with a high titer of Ac-hFAAH. At 72 hours post-infection, the infected cells were harvested by centrifugation at 2,000×g for 20 min at 4° C. and suspended in 50 mM Tris-HCl (pH 8.0) containing 150 mM NaCl, 1 mM EDTA, 1 μM pepstatin, 100 μM leupeptin, and 0.1 mg/ml aprotinin. The cell suspension was then homogenized using a Polytron homogenizer and centrifuged at 10,000×g for 20 min at 4° C. […]\nComparison of the lowest detection limits of protein concentration of FAAH toward colorimetric and fluorescent substrates. […] The lowest detection limits of microsomal fatty acid amide hydrolase (FAAH) by substrates were determined by the fact that the signal at 10 min after kinetic measurements are equal to or over three times the noise or basal line at 0 min. Colorimetric substrate (16) assays were performed in clear 96-well microtititer plates using an absorbance wavelength at 382 nm. The fluorescent substrates containing 5-amino-2-methoxypyridine (e.g., 10, 13) were measured at an excitation wavelength (302 nm), emission wavelength (396 nm), and auto cutoff wavelength (325 nm). Similarly, the fluorescent substrates containing 5-amino-2-methoxy-6-methylpyridine (e.g., 11, 14, and 17) were measured at an excitation wavelength (304 nm), emission wavelength (392 nm), and an auto cutoff wavelength of 325 nm. […]"}}, "note": "Marks after values point to notes of the source that are not given here."}
{"smiles": "CCCCCCCC(=O)Nc1ccc(OC)nc1", "note": "[Compound 13, N-(6-methoxypyridin-3-yl) octanamide]", "values": [{"measurement": "melting point", "value": "61.2 to 61.7", "unit": "°C"}, {"measurement": "base line, Average", "setting": "[1]; 0 min, protein 0.11 (13), 0.67 (14), 100 (15), 0.5 (17) μg/well, 200 μM (13),(14), 25 μM (15), 50 μM (17)", "value": 302, "unit": "RFU"}, {"measurement": "signal, Average", "setting": "[1]; 10 min, protein 0.11 (13), 0.67 (14), 100 (15), 0.5 (17) μg/well, 200 μM (13),(14), 25 μM (15), 50 μM (17)", "value": "1091* RFU"}, {"measurement": "difference between (13) and (17) in limit of protein detection", "setting": "[1]; Table 2", "value": 5, "unit": "times"}, {"measurement": "Protein, lowest detection limit of microsomal FAAH (signal at 10 min ≥ three times base line)", "setting": "[1]; pH 8.0, 37° C., 200 μM (13), (14), 50 μM (17)", "value": 0.11, "unit": "μg/200 μ′"}, {"measurement": "lowest detection limit of protein", "setting": "[1]; signal at 10 min equal to three times base line", "value": 0.55, "unit": "μg protein/ml"}, {"measurement": "Specific activity, Human liver microsomes", "setting": "[2]", "value": "0.46 ± 0.06", "unit": "nmol/min/mg protein"}, {"measurement": "Specific activity, Microsomes from High Five cells", "setting": "[3]", "value": "793 ± 38.9", "unit": "pmol/min/mg protein"}]}
